In PMC7570852, “Ruthenium(II)/(III) DMSO-Based Complexes of 2-Aminophenyl Benzimidazole with In Vitro and In Vivo Anticancer Activity” (Molecules, 2020) one finds Bcl2 gene expression data, which are given here for one molecule.

This assay has as its system Bcl2 gene expression. The assay is described as follows: Real-time qPCR of liver tissue, Bcl2. The class given is in vivo. The note with it: liver tissue of EAC-bearing mice, vs untreated. How it is done:
RNA was isolated from liver tissues using a RNeasy Mini kit. The integrity and purity of RNA were assessed by 1% agarose gel electrophoresis and nanodrop, respectively. The obtained RNA was reverse transcribed to yield cDNA using Quantiscript reverse transcriptase. Specific primers for Bax, caspase 3, and Bcl2 genes in addition to the housekeeping gene, β actin were designed by the Primer 3 web-based tool based on the published mice sequences (Table 5). Quantitative real-time PCR (qPCR) was performed using QuantiTect SYBR Green qPCR Master Mix in a StepOnePlus real-time PCR system and the melting curve condition and fold change calculation were done as previously described.

The structures appear in SMILES notation.

Turning to `CS(C)=O.Nc1ccccc1-c1nc2ccccc2[nH]1.O.[Cl][Ru]([Cl])[Cl]` [(2), [Ru(III)Cl3(DMSO)(Hapbim)]·H2O], the Bcl2 gene expression result is listed as “significant dose-dependent reduction”.
